Data: publication PMC5802278, “Molecular and cellular mechanisms of HIF prolyl hydroxylase inhibitors in clinical trials” (Chemical Science, 2017)
Like-named read-outs stand apart in the source and are kept apart here.

Legend:
[1] = tested on: HIF-1α Pro402 (NODD), Pro564 (CODD) and Asn803 hydroxylation in RCC4 cells; assay: Immunoblotting of HIF-1α hydroxylation in VHL-deficient RCC4 cells; type: cell-based, human; conditions: 6 hours; for comparison of inhibition of NODD and CODD hydroxylation: RCC4 cells, 10, 50 and 100 μM; for inhibition of HIF-1α NODD and CODD hydroxylation: titration
Procedure: To test whether the cellular HIF-α induction occurs via inhibition of HIF-α hydroxylation, we utilized a Von Hippel–Lindau (VHL)-deficient renal cell carcinoma cell line RCC4, in which HIF-α is constitutively stabilized in normoxia due to loss of functional VHL.[77] We used antibodies specific for hydroxylation at the N-terminal and C-terminal oxygen-dependent degradation domains, Pro402 (NODD) and Pro564 (CODD) at HIF-1α.[78] HIF-1α hydroxylation status was analyzed after 6 hours treatment. […]. page 15: […]
Cell Culture and Immunoblotting
HeLa and RCC4 cells were cultured in Dulbecco’s Modified Eagle’s Medium (DMEM; Sigma Aldrich D6546-500ML) supplemented with 10% fetal bovine serum (Sigma Aldrich F7524-500ML), 4 mM L-glutamine (Sigma Aldrich G7513- 100ML), 50 U/mL penicillin, and 50 μg/mL streptomycin (Sigma Aldrich P0781-100ML). Cells were seeded to reach 90-100% confluency prior to compound treatment. Cells were exposed to the inhibitor at a final concentration of 1% DMSO for 5-6 hours. For Fe(II) titration in the presence of inhibitors, ferric ammonium citrate was added to the cells for further 16 hours after 6 hours of incubation […]
(§1) Cells were harvested in urea/SDS buffer (6.7 M urea, 10 mM Tris-Cl pH 6.8, 10% glycerol, and1% SDS) supplemented with 1mM dithiothreitol following a phosphate-buffered saline (PBS) rinse. Cell extracts were analyzed with SDS-PAGE, electroblotted to polyvinylidene difluoride (PVDF) membrane (Millipore) and probed with the corresponding primary antibody for 1 hour at room temperature or overnight at 4 °C. The secondary antibody specific to primary antibody species conjugated with HRP were applied at room temperature for 1 hour.
The antibodies used for immonoblotting were as follows: pan-anti-HIF-1α (clone 54, BD Transduction Laboratories™), anti-HIF-1α Hyp402 (catalogue number 07-1585, Merck Millipore), anti-HIF-1α Hyp564 (D43B5, Cell Signaling), anti-HIF-1α HyN803 (a generous gift from Lee et al.15), PHD216, PHD316, and HRP-conjugated anti-β-actin (clone AC15, Abcam). Details of antibodies used are given in Tian et al.17 Detection of signal was achieved using SuperSignal™ West Dura Extended Duration Substrate kTM it (Thermo Scientific 34075, unless otherwise stated) either with film or ChemiDoc MP (BIO-RAD) imaging system. TM Quantification of the immunobloting signal was performed with Image Lab software from […]

[2] = tested on: HIF-1α in HeLa and U2OS cells, HIF-1α and HIF-2α in Hep3b cells; assay: Immunoblotting of HIF-α stabilization, dose titration; type: cell-based, human; conditions: 6 hours treatment, all of the cells tested
Procedure: The cellular HIF-α stabilization was further studied using immunoblotting. […]. page 15: […]
freshly every day as a 400 mM stock solution in 20 mM HCl, this was then diluted to 1 mM in deionized water. L-ascorbic acid (50 mM) and 2OG stock solutions (10 mM) were prepared freshly every day in deionized water as for the PHD2 assays14 . The synthetic consensus ankyrin […]
peptide ([…]-CONH2) was synthesized by GL Biochem
(Shanghai) Ltd and dissolved to 1 mM in deionized water.
20 μl FIH (100 nM) in the assay buffer (50 mM Tris.Cl pH 7.8, 50 mM NaCl) was pre-incubated for 15 minutes in the presence of the inhibitors and the enzyme reaction initiated by addition of 20 μl substrate (200 μM L-ascorbic acid, 20 μM Fe2+, 10 μM synthetic ankyrin peptide 14 and 20 μM 2OG). After 15 minutes the reaction was quenched by addition of 4 μl 10% formic acid and the reaction transferred to a RapidFire RF360 high throughput sampling robot. Samples were aspirated under vacuum onto a C4 Solid Phase Extraction (SPE) cartridge.
After an aqueous washing step (0.1% formic acid in water), to remove non-volatile buffer components from the C4 SPE, peptide was eluted in an organic washing step (85% acetonitrile in water, 0.1% formic acid) and injected into an Agilent 6530 Q-TOF mass spectrometer. Ion chromatogram data was extracted for the non-hydroxylated peptide substrate and the hydroxylated peptide product; the peak area data for extracted ion chromatograms were integrated using RapidFire Integrator software. % conversion of substrate to product was calculated in Microsoft excel and IC50 curves generated using Graphpad Prism.
Cell Culture and Immunoblotting […]
as §1, with “The secondary antibody specific to primary antibody species conjugated with HRP were applied at room temperature for 1 hour.” left out

[3] = target: JMJD3 (KDM6B) (Homo sapiens, UniProt O15054); assay: AlphaScreen histone demethylase assay; type: biochemical
Description: Protocols for in vitro PHD1–3 MALDI-TOF MS hydroxylation assays[30] and for the AlphaScreen histone demethylase assays[44] were as reported.

Sequence of JMJD3 (KDM6B) (O15054 whole entry): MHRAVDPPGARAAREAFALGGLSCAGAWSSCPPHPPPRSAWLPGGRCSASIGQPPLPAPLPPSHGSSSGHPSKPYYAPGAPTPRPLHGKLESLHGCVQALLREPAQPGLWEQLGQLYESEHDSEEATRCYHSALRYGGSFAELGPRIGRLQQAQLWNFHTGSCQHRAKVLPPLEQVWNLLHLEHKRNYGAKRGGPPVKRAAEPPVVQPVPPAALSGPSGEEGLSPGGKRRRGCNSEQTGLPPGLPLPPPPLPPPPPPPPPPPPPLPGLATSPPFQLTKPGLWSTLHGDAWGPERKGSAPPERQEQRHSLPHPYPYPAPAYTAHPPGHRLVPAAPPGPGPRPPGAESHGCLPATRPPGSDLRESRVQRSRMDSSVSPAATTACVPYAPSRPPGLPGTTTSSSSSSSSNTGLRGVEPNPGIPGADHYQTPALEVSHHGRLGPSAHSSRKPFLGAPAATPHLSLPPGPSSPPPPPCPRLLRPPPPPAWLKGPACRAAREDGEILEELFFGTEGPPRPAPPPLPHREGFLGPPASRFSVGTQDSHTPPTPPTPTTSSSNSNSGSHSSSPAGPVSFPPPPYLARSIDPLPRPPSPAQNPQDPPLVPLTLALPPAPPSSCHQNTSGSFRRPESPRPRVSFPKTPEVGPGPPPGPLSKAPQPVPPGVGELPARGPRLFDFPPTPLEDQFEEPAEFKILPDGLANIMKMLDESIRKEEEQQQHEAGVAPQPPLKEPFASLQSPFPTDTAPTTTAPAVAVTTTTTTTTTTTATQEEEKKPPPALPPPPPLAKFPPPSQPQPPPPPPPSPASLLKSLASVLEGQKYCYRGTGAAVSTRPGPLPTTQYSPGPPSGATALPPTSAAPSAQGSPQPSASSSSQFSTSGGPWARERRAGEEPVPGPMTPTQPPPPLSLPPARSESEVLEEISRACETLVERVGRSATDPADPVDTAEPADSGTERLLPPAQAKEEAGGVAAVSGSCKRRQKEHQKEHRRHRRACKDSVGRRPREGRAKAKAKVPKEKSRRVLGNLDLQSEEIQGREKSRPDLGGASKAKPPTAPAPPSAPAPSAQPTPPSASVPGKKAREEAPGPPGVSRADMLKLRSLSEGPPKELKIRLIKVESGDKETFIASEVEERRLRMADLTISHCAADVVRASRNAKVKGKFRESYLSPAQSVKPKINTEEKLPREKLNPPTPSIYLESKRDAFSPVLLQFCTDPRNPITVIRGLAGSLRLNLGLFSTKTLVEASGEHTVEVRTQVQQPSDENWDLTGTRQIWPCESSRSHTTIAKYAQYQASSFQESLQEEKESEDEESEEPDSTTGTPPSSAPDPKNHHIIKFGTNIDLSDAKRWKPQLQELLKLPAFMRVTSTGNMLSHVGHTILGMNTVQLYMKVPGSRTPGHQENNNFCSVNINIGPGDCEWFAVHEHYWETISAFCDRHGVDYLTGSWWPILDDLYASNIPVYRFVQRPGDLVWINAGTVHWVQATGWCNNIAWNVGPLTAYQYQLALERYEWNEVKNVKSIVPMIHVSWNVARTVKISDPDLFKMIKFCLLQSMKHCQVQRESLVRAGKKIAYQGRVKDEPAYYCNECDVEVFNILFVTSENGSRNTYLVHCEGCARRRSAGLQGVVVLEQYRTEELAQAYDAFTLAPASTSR

Compound | comparison of inhibition of NODD and CODD hydroxylation [1] | inhibition of CODD hydroxylation ([1]; RCC4 cells, 50 μM) | inhibition of NODD hydroxylation ([1]; RCC4 cells, 50 μM) | inhibition of HIF-1α NODD and CODD hydroxylation ([1]; RCC4 cells) | inhibition of HIF-1α Asn803 hydroxylation ([1]; RCC4 cells, up to 100 μM) | concentration at which HIF-1α levels (and HIF-2α levels in Hep3b cells) were saturated [2] | IC50 ([3]; read-out: IC50 JMJD3 (KDM6B)) | IC50 [3] | inhibition of NODD hydroxylation ([1]; RCC4 cells, 100 μM) | inhibition of CODD hydroxylation ([1]; RCC4 cells, up to 100 μM) | inhibition of hydroxylation of Asn803 ([1]; RCC4 cells, up to 200 μM)
Cc1nc(C(=O)NCC(=O)O)c(O)c2ccc(Oc3ccccc3)cc12 [FG-4592] | greatest inhibition of CODD hydroxylation among the inhibitors | clear inhibition | significantly inhibited | inhibited both NODD and CODD hydroxylation in a dose dependent manner | no sign of HIF-1α Asn803 hydroxylation inhibition | < 100 µM | > 100 µM | – | – | – | –
O=C(O)CNC(=O)C1C(=O)N(C2CCCCC2)C(=O)N(C2CCCCC2)C1=O [GSK1278863] | better inhibits NODD than CODD hydroxylation | – | – | inhibited both NODD and CODD hydroxylation in a dose dependent manner | no sign of HIF-1α Asn803 hydroxylation inhibition | < 100 µM | – | > 100 µM | – | – | –
CC(C)(C)OC(=O)c1ccc(-n2[nH]cc(-n3ccnn3)c2=O)nc1 [IOX4] | – | – | – | inhibited both NODD and CODD hydroxylation in a dose dependent manner | – | – | < 1 µM | – | – | – | –
O=c1c(-n2ccnn2)c[nH]n1-c1cc(N2CCOCC2)ncn1 [Molidustat] | weaker inhibition of both hydroxylation sites compared to FG-4592 and GSK1278863 at 10 μM | – | – | inhibited both NODD and CODD hydroxylation in a dose dependent manner | no sign of HIF-1α Asn803 hydroxylation inhibition | < 100 µM | 35 µM | – | – | – | –
O=C(O)CNC(=O)c1ncc(-c2cccc(Cl)c2)cc1O [Vadadustat] | – | – | no sign of PHD inhibition | – | – | – | 37 µM | – | only slight inhibition | no clear inhibition | not observed
